Residues, ends and D or L forms follow the SMILES beside them. *: point of attachment. X6 = CNCc1ccc(-c2c3c4c(cc(F)cc4n2[C@@H](CC(C)C)NC(=O)OCCS*)C(=O)NCC3)cc1; X26 = C[C@H](COC(=O)N1CCC[C@@H](c2ccc(-n3cc4cccc(C(N)=O)c4n3)cc2)C1)S*; X20 = C[C@]12CCCN1C1=NNC(=O)c3cc(F)cc4c3c1c(n4CNC(=O)OCCS*)C2

The target of this test is PARP (Homo sapiens, UniProt P09874). The test is described as follows: Enzymatic Assay 2: HT Universal Chemiluminescent PARP Assay of cleaved compounds.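 Note: PARP reaction with activated DNA run 1 h at room temperature, product detected via streptavidin-HRP and luminescence endpoint reading on a plate reader.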 As to conditions: read-out: IC50 Enzymatic Assay 2; Examples cleaved per Example A (crude cleavage solution); R^8H starting materials as such.
PARP, sequence (P09874 whole entry): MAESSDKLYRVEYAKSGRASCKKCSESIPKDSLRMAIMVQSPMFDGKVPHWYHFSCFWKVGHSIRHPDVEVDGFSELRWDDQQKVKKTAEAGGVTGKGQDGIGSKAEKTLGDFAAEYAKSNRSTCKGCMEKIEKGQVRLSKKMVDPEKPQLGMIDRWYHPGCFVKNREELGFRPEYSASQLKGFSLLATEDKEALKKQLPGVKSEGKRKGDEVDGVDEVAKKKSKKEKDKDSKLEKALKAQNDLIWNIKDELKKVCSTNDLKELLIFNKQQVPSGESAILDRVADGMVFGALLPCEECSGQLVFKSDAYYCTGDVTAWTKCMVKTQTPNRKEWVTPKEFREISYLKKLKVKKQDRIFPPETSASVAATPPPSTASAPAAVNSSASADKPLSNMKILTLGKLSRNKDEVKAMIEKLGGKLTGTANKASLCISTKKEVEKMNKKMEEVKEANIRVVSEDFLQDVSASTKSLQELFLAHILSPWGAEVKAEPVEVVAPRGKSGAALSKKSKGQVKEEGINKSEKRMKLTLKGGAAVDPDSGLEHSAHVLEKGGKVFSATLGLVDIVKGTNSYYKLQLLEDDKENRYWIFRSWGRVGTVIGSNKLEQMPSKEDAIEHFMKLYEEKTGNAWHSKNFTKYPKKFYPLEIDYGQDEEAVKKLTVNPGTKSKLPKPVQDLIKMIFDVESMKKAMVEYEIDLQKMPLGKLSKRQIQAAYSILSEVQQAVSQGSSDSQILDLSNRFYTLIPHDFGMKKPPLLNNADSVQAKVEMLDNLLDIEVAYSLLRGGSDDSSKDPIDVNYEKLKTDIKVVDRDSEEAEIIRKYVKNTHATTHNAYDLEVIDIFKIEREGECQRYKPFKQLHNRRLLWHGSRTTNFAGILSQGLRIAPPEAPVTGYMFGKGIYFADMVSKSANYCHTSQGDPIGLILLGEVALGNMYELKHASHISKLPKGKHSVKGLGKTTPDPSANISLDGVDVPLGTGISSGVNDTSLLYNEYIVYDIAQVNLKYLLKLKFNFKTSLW

Broadly, the IC50 is the concentration that gives 50% inhibition. On to `CC[C@H](C)[C@H](NC(=O)[C@@H]1CCCN1C(=O)[C@H](CC(N)=O)NC(=O)[C@H](CCC(N)=O)NC(=O)[C@H](CCC(=O)O)NC(=O)[C@H](C)N)C(=O)N[C@@H](Cc1ccc(O)cc1)C(=O)N[C@@H](Cc1c[nH]c2ccccc12)C(=O)N[C@@H](C)C(=O)N[C@@H](CCCNC(=N)N)C(=O)N[C@@H](Cc1ccc(O)cc1)C(=O)N[C@@H](C)C(=O)N[C@@H](CC(=O)O)C(=O)N[C@@H](Cc1c[nH]c2ccccc12)C(=O)N[C@@H](CC(C)C)C(=O)N[C@@H](Cc1ccccc1)C(=O)N[C@H](C(=O)N[C@H](C(=O)N1CCC[C@H]1C(=O)N[C@@H](CC(C)C)C(=O)N[C@@H](CC(C)C)C(=O)N[C@@H](CC(C)C)C(=O)N[C@@H](CC(C)C)C(=O)N[C@@H](CC(=O)O)C(=O)N[C@@H](CC(C)C)C(=O)N[C@@H](C)C(=O)N[C@@H](CC(C)C)C(=O)N[C@@H](CC(C)C)C(=O)N[C@H](C(=O)N[C@@H](CC(=O)O)C(=O)N[C@@H](C)C(=O)N[C@@H](CC(=O)O)C(=O)N[C@@H](CCC(=O)O)C(=O)N[C@@H](CSSCCOC(=O)N[C@H](CC(C)C)n1c(-c2ccc(CNC)cc2)c2c3c(cc(F)cc31)C(=O)NCC2)C(=O)NCC(=O)O)C(C)C)[C@@H](C)O)[C@@H](C)O` [Example 35] (H-AEQNPIYWARYADWLFTTPLLLLDLALLVDADEC(X6)G-OH; N-terminus and C-terminus assumed), for which the IC50 worked out at 3.1 nM.
As to `CC(C)C[C@H](NC(=O)[C@H](Cc1ccc(O)cc1)NC(=O)[C@H](C)NC(=O)[C@H](CCCNC(=N)N)NC(=O)[C@H](Cc1c[nH]c2ccccc12)NC(=O)[C@@H]1CCCN1C(=O)[C@H](CC(N)=O)NC(=O)[C@H](CCC(N)=O)NC(=O)[C@H](CC(=O)O)NC(=O)[C@H](CC(=O)O)NC(=O)[C@H](C)N)C(=O)N[C@@H](CC(=O)O)C(=O)N[C@@H](CC(C)C)C(=O)N[C@@H](CC(C)C)C(=O)N[C@@H](Cc1ccccc1)C(=O)N1CCC[C@H]1C(=O)N[C@H](C(=O)N[C@@H](CC(=O)O)C(=O)N[C@H](C(=O)N[C@@H](CC(C)C)C(=O)N[C@@H](CC(C)C)C(=O)N[C@@H](CC(C)C)C(=O)N[C@@H](CC(=O)O)C(=O)N[C@@H](CC(C)C)C(=O)N[C@@H](CC(C)C)C(=O)N[C@@H](Cc1c[nH]c2ccccc12)C(=O)N[C@@H](CSSc1ccc(COC(=O)N(C)Cc2ccc(-c3[nH]c4cc(F)cc5c4c3CCNC5=O)cc2)cc1)C(=O)NCC(=O)O)[C@@H](C)O)[C@@H](C)O` [Example 36], the IC50 was 2.2 nM.
On to `CC(C)C[C@H](NC(=O)[C@H](Cc1ccc(O)cc1)NC(=O)[C@H](C)NC(=O)[C@H](CCCNC(=N)N)NC(=O)[C@H](Cc1c[nH]c2ccccc12)NC(=O)[C@@H]1CCCN1C(=O)[C@H](CC(N)=O)NC(=O)[C@H](CCC(N)=O)NC(=O)[C@H](CC(=O)O)NC(=O)[C@H](CC(=O)O)NC(=O)[C@H](C)N)C(=O)N[C@@H](CC(=O)O)C(=O)N[C@@H](CC(C)C)C(=O)N[C@@H](CC(C)C)C(=O)N[C@@H](Cc1ccccc1)C(=O)N1CCC[C@H]1C(=O)N[C@H](C(=O)N[C@@H](CC(=O)O)C(=O)N[C@H](C(=O)N[C@@H](CC(C)C)C(=O)N[C@@H](CC(C)C)C(=O)N[C@@H](CC(C)C)C(=O)N[C@@H](CC(=O)O)C(=O)N[C@@H](CC(C)C)C(=O)N[C@@H](CC(C)C)C(=O)N[C@@H](Cc1c[nH]c2ccccc12)C(=O)N[C@@H](CC(=O)O)C(=O)N[C@@H](C)C(=O)N[C@@H](CC(=O)O)C(=O)N[C@@H](CCC(=O)O)C(=O)N[C@@H](CSSc1ccc(COC(=O)N(C)Cc2ccc(-c3[nH]c4cc(F)cc5c4c3CCNC5=O)cc2)cc1)C(=O)NCC(=O)O)[C@@H](C)O)[C@@H](C)O` [Example 37], for which the IC50 came to 3.1 nM.
The value for `CC[C@H](C)[C@H](NC(=O)[C@@H]1CCCN1C(=O)[C@H](CC(N)=O)NC(=O)[C@H](CCC(N)=O)NC(=O)[C@H](CCC(=O)O)NC(=O)[C@H](C)N)C(=O)N[C@@H](Cc1ccc(O)cc1)C(=O)N[C@@H](Cc1c[nH]c2ccccc12)C(=O)N[C@@H](C)C(=O)N[C@@H](CCCNC(=N)N)C(=O)N[C@@H](Cc1ccc(O)cc1)C(=O)N[C@@H](C)C(=O)N[C@@H](CC(=O)O)C(=O)N[C@@H](Cc1c[nH]c2ccccc12)C(=O)N[C@@H](CC(C)C)C(=O)N[C@@H](Cc1ccccc1)C(=O)N[C@H](C(=O)N[C@H](C(=O)N1CCC[C@H]1C(=O)N[C@@H](CC(C)C)C(=O)N[C@@H](CC(C)C)C(=O)N[C@@H](CC(C)C)C(=O)N[C@@H](CC(C)C)C(=O)N[C@@H](CC(=O)O)C(=O)N[C@@H](CC(C)C)C(=O)N[C@@H](C)C(=O)N[C@@H](CC(C)C)C(=O)N[C@@H](CC(C)C)C(=O)N[C@H](C(=O)N[C@@H](CC(=O)O)C(=O)N[C@@H](C)C(=O)N[C@@H](CC(=O)O)C(=O)N[C@@H](CCC(=O)O)C(=O)N[C@@H](CSSCCOC(=O)NCn1c2c3c4c(cc(F)cc41)C(=O)NN=C3N1CCC[C@]1(C)C2)C(=O)NCC(=O)O)C(C)C)[C@@H](C)O)[C@@H](C)O` [Example 38] (H-AEQNPIYWARYADWLFTTPLLLLDLALLVDADEC(X20)G-OH; N-terminus and C-terminus assumed) was 2.8 nM; that for `CC(C)C[C@H](NC(=O)[C@H](Cc1ccc(O)cc1)NC(=O)[C@H](C)NC(=O)[C@H](CCCNC(=N)N)NC(=O)[C@H](Cc1c[nH]c2ccccc12)NC(=O)[C@@H]1CCCN1C(=O)[C@H](CC(N)=O)NC(=O)[C@H](CCC(N)=O)NC(=O)[C@H](CC(=O)O)NC(=O)[C@H](CC(=O)O)NC(=O)[C@H](C)N)C(=O)N[C@@H](CC(=O)O)C(=O)N[C@@H](CC(C)C)C(=O)N[C@@H](CC(C)C)C(=O)N[C@@H](Cc1ccccc1)C(=O)N1CCC[C@H]1C(=O)N[C@H](C(=O)N[C@@H](CC(=O)O)C(=O)N[C@H](C(=O)N[C@@H](CC(C)C)C(=O)N[C@@H](CC(C)C)C(=O)N[C@@H](CC(C)C)C(=O)N[C@@H](CC(=O)O)C(=O)N[C@@H](CC(C)C)C(=O)N[C@@H](CC(C)C)C(=O)N[C@@H](Cc1c[nH]c2ccccc12)C(=O)N[C@@H](CSSC1(COC(=O)N(C)Cc2ccc(-c3[nH]c4cc(F)cc5c4c3CCNC5=O)cc2)CCC1)C(=O)NCC(=O)O)[C@@H](C)O)[C@@H](C)O` [Example 44] was 1.5 nM.
Take `CC(C)C[C@H](NC(=O)[C@H](Cc1ccc(O)cc1)NC(=O)[C@H](C)NC(=O)[C@H](CCCNC(=N)N)NC(=O)[C@H](Cc1c[nH]c2ccccc12)NC(=O)[C@@H]1CCCN1C(=O)[C@H](CC(N)=O)NC(=O)[C@H](CCC(N)=O)NC(=O)[C@H](CC(=O)O)NC(=O)[C@H](CC(=O)O)NC(=O)[C@H](C)N)C(=O)N[C@@H](CC(=O)O)C(=O)N[C@@H](CC(C)C)C(=O)N[C@@H](CC(C)C)C(=O)N[C@@H](Cc1ccccc1)C(=O)N1CCC[C@H]1C(=O)N[C@H](C(=O)N[C@@H](CC(=O)O)C(=O)N[C@H](C(=O)N[C@@H](CC(C)C)C(=O)N[C@@H](CC(C)C)C(=O)N[C@@H](CC(C)C)C(=O)N[C@@H](CC(=O)O)C(=O)N[C@@H](CC(C)C)C(=O)N[C@@H](CC(C)C)C(=O)N[C@@H](Cc1c[nH]c2ccccc12)C(=O)N[C@@H](CC(=O)O)C(=O)N[C@@H](C)C(=O)N[C@@H](CC(=O)O)C(=O)N[C@@H](CCC(=O)O)C(=O)N[C@@H](CSS[C@H](C)COC(=O)N1CCC[C@@H](c2ccc(-n3cc4cccc(C(N)=O)c4n3)cc2)C1)C(=O)NCC(=O)O)[C@@H](C)O)[C@@H](C)O` [Example 45]: the half-inhibitory concentration (IC50) was 3.2 nM.
In the case of `CC(C)C[C@H](NC(=O)[C@H](Cc1ccc(O)cc1)NC(=O)[C@H](C)NC(=O)[C@H](CCCNC(=N)N)NC(=O)[C@H](Cc1c[nH]c2ccccc12)NC(=O)[C@@H]1CCCN1C(=O)[C@H](CC(N)=O)NC(=O)[C@H](CCC(N)=O)NC(=O)[C@H](CC(=O)O)NC(=O)[C@H](CC(=O)O)NC(=O)[C@H](C)N)C(=O)N[C@@H](CC(=O)O)C(=O)N[C@@H](CC(C)C)C(=O)N[C@@H](CC(C)C)C(=O)N[C@@H](Cc1ccccc1)C(=O)N1CCC[C@H]1C(=O)N[C@H](C(=O)N[C@@H](CC(=O)O)C(=O)N[C@H](C(=O)N[C@@H](CC(C)C)C(=O)N[C@@H](CC(C)C)C(=O)N[C@@H](CC(C)C)C(=O)N[C@@H](CC(=O)O)C(=O)N[C@@H](CC(C)C)C(=O)N[C@@H](CC(C)C)C(=O)N[C@@H](Cc1c[nH]c2ccccc12)C(=O)N[C@@H](CC(=O)O)C(=O)N[C@@H](C)C(=O)N[C@@H](CC(=O)O)C(=O)N[C@@H](CCC(=O)O)C(=O)N[C@@H](CSS[C@@H](C)COC(=O)N1CCC[C@@H](c2ccc(-n3cc4cccc(C(N)=O)c4n3)cc2)C1)C(=O)NCC(=O)O)[C@@H](C)O)[C@@H](C)O` [Example 46], the IC50 was determined as 3.7 nM.
Under `CC[C@H](C)[C@H](NC(=O)[C@@H]1CCCN1C(=O)[C@H](CC(N)=O)NC(=O)[C@H](CCC(N)=O)NC(=O)[C@H](CCC(=O)O)NC(=O)[C@H](C)N)C(=O)N[C@@H](Cc1ccc(O)cc1)C(=O)N[C@@H](Cc1c[nH]c2ccccc12)C(=O)N[C@@H](C)C(=O)N[C@@H](CCCNC(=N)N)C(=O)N[C@@H](Cc1ccc(O)cc1)C(=O)N[C@@H](C)C(=O)N[C@@H](CC(=O)O)C(=O)N[C@@H](Cc1c[nH]c2ccccc12)C(=O)N[C@@H](CC(C)C)C(=O)N[C@@H](Cc1ccccc1)C(=O)N[C@H](C(=O)N[C@H](C(=O)N1CCC[C@H]1C(=O)N[C@@H](CC(C)C)C(=O)N[C@@H](CC(C)C)C(=O)N[C@@H](CC(C)C)C(=O)N[C@@H](CC(C)C)C(=O)N[C@@H](CC(=O)O)C(=O)N[C@@H](CC(C)C)C(=O)N[C@@H](C)C(=O)N[C@@H](CC(C)C)C(=O)N[C@@H](CC(C)C)C(=O)N[C@H](C(=O)N[C@@H](CC(=O)O)C(=O)N[C@@H](C)C(=O)N[C@@H](CC(=O)O)C(=O)N[C@@H](CCC(=O)O)C(=O)N[C@@H](CSS[C@H](C)COC(=O)N1CCC[C@@H](c2ccc(-n3cc4cccc(C(N)=O)c4n3)cc2)C1)C(=O)NCC(=O)O)C(C)C)[C@@H](C)O)[C@@H](C)O` [Example 47] (H-AEQNPIYWARYADWLFTTPLLLLDLALLVDADEC(X26)G-OH; N-terminus and C-terminus assumed) stands 2.4 nM.

The record behind these values is patent US12427157B2, “Methods for treatment of diseases involving acidic or hypoxic diseased tissues” (Cybrexa 1, Inc., priority 2018, dated 2025).
